Measurements from patent US20230220021A1, “CYCLIC PEPTIDE INHIBITORS OF PSD-95 AND USES THEREOF” (University of Copenhagen, priority 2020, published 2023).
Where a SMILES comes first, the peptide text is derived from it. [ ]: non-standard residue; d: D form.

What was measured:
Assay type in all cases: binding
PSD-95-PDZ2 [1] = biological target: T1, PSD-95-PDZ2 (Homo sapiens, UniProt P78352); test: Isothermal titration calorimetry (ITC)
T1 construct: 7xHis (N); made in house; host or cells: Escherichia coli B21 pLys (for the mutants, 'as previously described')
Method: Isothermal titration calorimetry (ITC). The ITC assays were performed in NaPi 50 nM, 50 nM NaCl, pH 7.2 buffer filtered with a Corning® bottle-top vacuum filter system of a pore size of 0.22 μM, that was used to dissolve the peptides. Proteins were dialyzed against this buffer using Amicon® Ultra-15 centrifugal filter units, with a MWCO 3000 Da.
This assay was performed on an ITC200. The instrument differential power (DP) was set to 10 and the syringe rotating speed to 600 RPM. The assay setup consisted of introducing the protein inside the cell and the peptide (titrant) on the syringe. Calorimetry was performed at 25° C. Each analysis was performed in triplicates. Furthermore, several runs of peptide into buffer were performed in order to remove injection residual heat. Runs were analyzed with Origin 7.0 software (OriginLab).

PSD-95-PDZ2 [2] = biological target: T1, PSD-95-PDZ2; test: Fluorescence polarization (FP) competition assay against cyclic nNOS TAMRA probe; conditions: for Ki: FP competition, cyclic nNOS TAMRA probe, mean of triplicates, N.B. = not binding, read-out: Ki; for Relative Ki (Ki mut/Ki WT): FP inhibition constant normalized to WT value
Method: Fluorescence polarization (FP). FP assays were performed in a 384-well plate format. Fluorescence polarization was measured using a Safire 2 plate reader. The instrument Z-factor was optimized for each assay. The G-factor was calibrated to an initial milli polarization value of 20. The wavelength for the cyclic nNOS β-hairpin TAMRA probe was: ex: 530 nm and em: 580 nm. Every measurement was performed in NaPI 50 mM, 50 mM NaCl and 1% BSA at pH 7.2, 25° C. […] The curves were done in triplicates. Then, the polarization was fitted into a one-site binding model using Prism software 8.0 (GraphPad), from which the Kd can be measured. […] The mili polarization (mP) values were plotted as a function of peptide concentration and fitted to a sigmoidal dose-response curve using Prism software 8.0 (GraphPad). The Ki values were calculated according to Nikolovska-Coleska Z. et al.^40-41

PSD-95-PDZ2 [3] = biological target: T2, PSD-95-PDZ2 (Homo sapiens, UniProt P78352, V178C); test: SPOT peptide array screening with TAMRA labelled PSD-95-PDZ2; conditions: SPOT array, TAMRA labelled PSD-95-PDZ2-V178C, normalized to WT
T2 construct: screened with the TAMRA labelled PSD-95-PDZ2-V178C domain; 7xHis (N); made in house
In short: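 First, arrays were blocked 1 h and scanned to record background. Next, 50 nM labelled PDZ2-V178C in PBS pH 7.2 with 0.5% BSA bound for 1 h protected from light. Finally, after washes, 532 nm fluorescence was measured and background-corrected.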

SMILES: CC[C@H](C)[C@@H]1NC(=O)[C@H]([C@@H](C)O)NC(=O)[C@H](CCCCN)NC(=O)[C@@H]2CCCN2C(=O)[C@H]([C@@H](C)O)NC(=O)CNC(=O)[C@H](CC(=O)O)NC(=O)CNC(=O)[C@H]([C@@H](C)O)NC(=O)[C@H](Cc2ccccc2)NC(=O)[C@H]([C@@H](C)O)NC(=O)[C@H]([C@@H](C)O)NC(=O)[C@H](CCC(=O)O)NC(=O)[C@H](CC(C)C)NC(=O)[C@H](Cc2c[nH]cn2)NC(=O)[C@H]([C@@H](C)O)NC(=O)[C@H](CCC(N)=O)NC(=O)CNC(=O)[C@H]2CCCN2C(=O)[C@H](CCC(N)=O)NC(=O)[C@H]([C@@H](C)O)NC(=O)[C@H](C(C)C)NC(=O)[C@H](CCCNC(=N)N)NC1=O [SEQ ID NO: 12]
- Kd (PSD-95-PDZ2 [1]; 25° C., tested up to 100 μM, read-out: affinity (Kd) by ITC): 2200 ± 300 nM

SMILES: CC[C@H](C)[C@@H]1NC(=O)[C@H]([C@@H](C)O)NC(=O)[C@H](CCCCN)NC(=O)[C@@H]2CCCN2C(=O)[C@H](CCC(=O)O)NC(=O)CNC(=O)[C@H](CC(=O)O)NC(=O)CNC(=O)[C@H](Cc2c[nH]c3ccccc23)NC(=O)[C@H](Cc2ccccc2)NC(=O)[C@H]([C@@H](C)O)NC(=O)[C@H]([C@@H](C)O)NC(=O)[C@H](CCC(=O)O)NC(=O)[C@H](CC(C)C)NC(=O)[C@H](Cc2cncn2C)NC(=O)[C@H]([C@@H](C)O)NC(=O)[C@H](CCC(N)=O)NC(=O)CNC(=O)[C@H]2CCCN2C(=O)[C@H](CCC(N)=O)NC(=O)[C@H]([C@@H](C)O)NC(=O)[C@H](C(C)C)NC(=O)[C@H](CCCNC(=N)N)NC1=O [SEQ ID NO: 16]
- fold improved binding affinity compared to the wild-type peptide (PSD-95-PDZ2 [1]; ITC Kd): 75 fold

SMILES: CC[C@H](C)[C@@H]1NC(=O)[C@H]([C@@H](C)O)NC(=O)[C@H](CCCCN)NC(=O)[C@@H]2CCCN2C(=O)[C@H]([C@@H](C)O)NC(=O)CNC(=O)[C@H](CC(=O)O)NC(=O)CNC(=O)[C@H]([C@@H](C)O)NC(=O)[C@H](Cc2ccccc2)NC(=O)[C@H](CC(=O)O)NC(=O)[C@H]([C@@H](C)O)NC(=O)[C@H](CCC(=O)O)NC(=O)[C@H](CC(C)C)NC(=O)[C@H](Cc2c[nH]cn2)NC(=O)[C@H]([C@@H](C)O)NC(=O)[C@H](CCC(N)=O)NC(=O)CNC(=O)[C@H]2CCCN2C(=O)[C@H](CCC(N)=O)NC(=O)[C@H]([C@@H](C)O)NC(=O)[C@H](C(C)C)NC(=O)[C@H](CCCNC(=N)N)NC1=O [compound 54] (cyclo(THLETDFTGDGTPKTIRVTQ[dP]GQ))
- Ki (PSD-95-PDZ2 [2]): 1420 nM
- Relative Ki (Ki mut/Ki WT) (PSD-95-PDZ2 [2]): 0.95
- Normalized SPOT fluorescence (Mut/WT) (PSD-95-PDZ2 [3]): 0.16

SMILES: CC[C@H](C)[C@@H]1NC(=O)[C@H]([C@@H](C)O)NC(=O)[C@H](CCCCN)NC(=O)[C@@H]2CCCN2C(=O)[C@H](CCC(=O)O)NC(=O)CNC(=O)[C@H](CC(=O)O)NC(=O)CNC(=O)[C@H]([C@@H](C)O)NC(=O)[C@H](Cc2ccccc2)NC(=O)[C@H]([C@@H](C)O)NC(=O)[C@H]([C@@H](C)O)NC(=O)[C@H](CCC(=O)O)NC(=O)[C@H](CC(C)C)NC(=O)[C@H](Cc2c[nH]cn2)NC(=O)[C@H]([C@@H](C)O)NC(=O)[C@H](CCC(N)=O)NC(=O)CNC(=O)[C@H]2CCCN2C(=O)[C@H](CCC(N)=O)NC(=O)[C@H]([C@@H](C)O)NC(=O)[C@H](C(C)C)NC(=O)[C@H](CCCNC(=N)N)NC1=O [compound 33] (cyclo(THLETTFTGDGEPKTIRVTQ[dP]GQ))
- Ki (PSD-95-PDZ2 [2]): 420 nM
- Relative Ki (Ki mut/Ki WT) (PSD-95-PDZ2 [2]): 0.28
- Normalized SPOT fluorescence (Mut/WT) (PSD-95-PDZ2 [3]): 1.37

SMILES: CC[C@H](C)[C@@H]1NC(=O)[C@H]([C@@H](C)O)NC(=O)[C@H](CCCCN)NC(=O)[C@@H]2CCCN2C(=O)[C@H]([C@@H](C)O)NC(=O)CNC(=O)[C@H](CC(=O)O)NC(=O)CNC(=O)[C@H]([C@@H](C)O)NC(=O)[C@H](Cc2ccccc2)NC(=O)[C@H]([C@@H](C)O)NC(=O)[C@H]([C@@H](C)O)NC(=O)[C@H](CCC(=O)O)NC(=O)[C@H](CC(C)C)NC(=O)[C@H](C)NC(=O)[C@H]([C@@H](C)O)NC(=O)[C@H](CCC(N)=O)NC(=O)CNC(=O)[C@H]2CCCN2C(=O)[C@H](CCC(N)=O)NC(=O)[C@H]([C@@H](C)O)NC(=O)[C@H](C(C)C)NC(=O)[C@H](CCCNC(=N)N)NC1=O [compound 56] (cyclo(TALETTFTGDGTPKTIRVTQ[dP]GQ))
- Relative Ki (Ki mut/Ki WT) (PSD-95-PDZ2 [2]): 1.37
- Normalized SPOT fluorescence (Mut/WT) (PSD-95-PDZ2 [3]): 0.38
